Assay results: PMC10731000, “Functional characterization of three G protein-coupled acetylcholine receptors in parasitic nematode Trichinella spiralis” (International Journal for Parasitology: Drugs and Drug …, 2023)
“Also recorded” adds a separate entry of the source. Structures can show the parent of a compound that is named as a salt. Where two headings read alike, the source gives them in different places.

Tests used:
TsGAR-3 [1] = molecular target: T1, TsGAR-3 (Trichinella spiralis, UniProt E5S5F5); experiment: Aequorin calcium mobilization agonist assay in CHO-K1 cells expressing TsGAR-3; type: cell-based; conditions: for ACh-mediated calcium mobilization via TsGAR-3 (in words): Fig. 4
Excerpt: (§1) T. spiralis GARs were heterologously expressed in CHO–K1 cells (Sigma) along with the aequorin reporter—with or without the wild-type human G protein alpha 15 subunit (Gα15(16)) (cDNA Resource Center, Bloomsburg University of Pennsylvania)—to observe activation of the receptor by monitoring bioluminescence triggered by the mobilization of intracellular calcium ([Offermanns and Simon, 1995]; [Park et al., 2002]). Therefore, there were two types of transient expression: i) TsGAR-1, -2, or -3/aequorin/Gα15(16); and ii) TsGAR-1, -2, or -3/aequorin. The use of Gα15(16) in the first assay is due to its highly efficient way of linking calcium mobilization signaling pathways to GPCRs that are preferentially coupling with Gi/o or Gs protein members ([Offermanns and Simon, 1995]).
(§2) For handling cell lines, all transfection details, and monitoring receptor activities, we followed the previously published study ([Šimo et al., 2011], [2013]; [Mateos-Hernández et al., 2020]). Briefly, CHO–K1 cells were kept in growth medium (Ham's F12 Media with 10% fetal bovine serum) until 70% of confluence was reached. FuGENE® HD Transfection Reagent (Promega) was then used to transfect the plasmid constructs. Prior to the assay, the cells were pre-equilibrated with coelenterazine h (Promega) for 3 h at room temperature. The assay was performed in opaque 96-well microplates (Nunc) using either Fluostar Omega (BMG Labtech) or GloMax® Plate Reader (Promega). In agonist assays, 50 μL of various doses of agonistic ligands were added to wells in triplicate, followed by injection of 50μL/∼15,000 of CHO–K1 cells. Immediately after the cell injections, luminescence values were monitored for 25 s and their integrated values over time were normalized to the largest positive control response in each plate (45 μM ACh) after background noise was subtracted. When performing the antagonist assay, cells were pre-incubated with different doses of antagonistic ligands for 5 min in RT (in a 96-well plate) and subsequently a 50 μL of 10 μM ACh solution was injected into the wells. The changes in luminescence were measured for 25 s immediately after injecting ACh, and time integrated values were normalized to the response of those wells in each plate that only contained cells with medium. A dose-response curve was plotted afterwards for each data set and half-maximum response values (EC50 or IC50) along the Hill coefficient (nH) were calculated using GraphPad Prism 8.0 (GraphPad Software). Two and three biological replicates were performed for the testing of T. spiralis GARs with or without the Gα15(16) and agonistic or antagonistic assay, respectively, with three technical replicates for each ligand. In terms of negative controls, a mock transfection was performed using empty pcDNA3.1 (+) plasmid, with an aequorin reporter and Gα15(16) subunit. To confirm the specificity of T. spiralis GAR-1, -2, and -3 affinity, we tested dopamine, octopamine and norepinephrine chemical agents.

TsGAR-2 [2] = molecular target: T2, TsGAR-2 (Trichinella spiralis, UniProt E5SAZ1); experiment: Aequorin calcium mobilization agonist assay in CHO-K1 cells expressing TsGAR-2; type: cell-based; conditions: for ACh-mediated calcium mobilization via TsGAR-2 (in words): Fig. 4
Excerpt: as §1, §2

TsGAR-1 [3] = molecular target: T3, TsGAR-1 (Trichinella spiralis, UniProt A0A0V1C1R2); experiment: Aequorin calcium mobilization agonist assay in CHO-K1 cells expressing TsGAR-1; type: cell-based; conditions: for ACh-mediated calcium mobilization via TsGAR-1 (in words): Fig. 4
Excerpt: as §1, §2

A. suum GAR-1 = tested on: A. suum GAR-1; set-up: method as in Kimber et al., 2009; conditions: ref Kimber et al., 2009; cited from earlier work
C. elegans GAR-1 = tested on: C. elegans GAR-1; set-up: method as in Lee et al., 1999, Lee et al., 2000; conditions: ref Lee et al., 1999, Lee et al., 2000; cited from earlier work
TsGAR-1 [4] = molecular target: T3, TsGAR-1; experiment: Aequorin antagonist assay (block of 10 μM ACh response) in CHO-K1 cells expressing TsGAR-1; type: cell-based; conditions: co-expressed with Gα15(16)
Excerpt: as §1
as §2, with “In terms of negative controls, a mock transfection was performed using empty pcDNA3.1 (+) plasmid, with an aequorin reporter and Gα15(16) subunit. To confirm the specificity of T. spiralis GAR-1, -2, and -3 affinity, we tested dopamine, octopamine and norepinephrine chemical agents.” left out

TsGAR-2 [5] = molecular target: T2, TsGAR-2; experiment: Aequorin antagonist assay (block of 10 μM ACh response) in CHO-K1 cells expressing TsGAR-2; type: cell-based; conditions: co-expressed with Gα15(16)
Excerpt: as §1, §2

T. castaneum mAChR-B = tested on: T. castaneum mAChR-B; set-up: method as in Collin et al., 2013; conditions: ref Collin et al., 2013, cited from earlier work; for antagonist effect on T. castaneum mAChR-B (in words): same expression system as this study
TsGAR-3 [6] = molecular target: T1, TsGAR-3; experiment: Aequorin antagonist assay (block of 10 μM ACh response) in CHO-K1 cells expressing TsGAR-3; type: cell-based; conditions: for nH (Hill coefficient), antagonist, TsGAR-3 / antagonist effect on TsGAR-3 (in words): without Gα15(16)
Protocol: Therefore, there were two types of transient expression: i) TsGAR-1, -2, or -3/aequorin/Gα15(16); and ii) TsGAR-1, -2, or -3/aequorin.
as §2, with “Briefly,” for “For handling cell lines, all transfection details, and monitoring receptor activities, we followed the previously published study ([Šimo et al., 2011], [2013]; [Mateos-Hernández et al., 2020]). Briefly,”, “Immediately after the cell injections, luminescence values were monitored for 25 s and their integrated values over time were normalized to the largest positive control response in each plate (45 μM ACh) after background noise was subtracted.” left out

D. melanogaster mAChR-B = tested on: D. melanogaster mAChR-B; set-up: method as in Collin et al., 2013; conditions: ref Collin et al., 2013, cited from earlier work; for antagonist effect on D. melanogaster mAChR-B (in words): same expression system as this study
C. elegans GAR-2 = tested on: C. elegans GAR-2; set-up: method as in Lee et al., 1999, Lee et al., 2000; conditions: ref Lee et al., 1999, Lee et al., 2000; cited from earlier work
[7] = expressed alone, without Gα15(16)
[8] = agonist, co-expressed with Gα15(16)
[9] = times lower sensitivity than mAChR-A

T1 sequence (E5S5F5 entry or part of it): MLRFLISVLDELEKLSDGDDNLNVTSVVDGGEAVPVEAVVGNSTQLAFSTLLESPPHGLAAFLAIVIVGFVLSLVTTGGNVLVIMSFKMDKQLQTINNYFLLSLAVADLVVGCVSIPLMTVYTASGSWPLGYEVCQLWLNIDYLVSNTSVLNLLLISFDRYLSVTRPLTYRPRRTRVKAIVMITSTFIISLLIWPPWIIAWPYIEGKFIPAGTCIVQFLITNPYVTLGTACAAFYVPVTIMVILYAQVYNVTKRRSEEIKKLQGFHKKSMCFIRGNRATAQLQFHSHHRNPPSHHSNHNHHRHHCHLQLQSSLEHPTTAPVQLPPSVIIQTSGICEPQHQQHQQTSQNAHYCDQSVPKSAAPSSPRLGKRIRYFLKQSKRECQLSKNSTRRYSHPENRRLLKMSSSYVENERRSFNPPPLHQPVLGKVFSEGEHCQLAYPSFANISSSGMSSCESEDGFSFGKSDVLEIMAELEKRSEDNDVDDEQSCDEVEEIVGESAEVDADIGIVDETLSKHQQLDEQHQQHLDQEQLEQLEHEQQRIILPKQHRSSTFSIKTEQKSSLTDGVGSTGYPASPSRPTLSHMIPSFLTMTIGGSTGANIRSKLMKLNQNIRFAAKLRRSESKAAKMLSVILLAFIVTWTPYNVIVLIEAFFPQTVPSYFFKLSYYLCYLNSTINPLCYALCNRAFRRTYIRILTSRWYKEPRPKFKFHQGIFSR
T3 sequence (A0A0V1C1R2 entry or part of it): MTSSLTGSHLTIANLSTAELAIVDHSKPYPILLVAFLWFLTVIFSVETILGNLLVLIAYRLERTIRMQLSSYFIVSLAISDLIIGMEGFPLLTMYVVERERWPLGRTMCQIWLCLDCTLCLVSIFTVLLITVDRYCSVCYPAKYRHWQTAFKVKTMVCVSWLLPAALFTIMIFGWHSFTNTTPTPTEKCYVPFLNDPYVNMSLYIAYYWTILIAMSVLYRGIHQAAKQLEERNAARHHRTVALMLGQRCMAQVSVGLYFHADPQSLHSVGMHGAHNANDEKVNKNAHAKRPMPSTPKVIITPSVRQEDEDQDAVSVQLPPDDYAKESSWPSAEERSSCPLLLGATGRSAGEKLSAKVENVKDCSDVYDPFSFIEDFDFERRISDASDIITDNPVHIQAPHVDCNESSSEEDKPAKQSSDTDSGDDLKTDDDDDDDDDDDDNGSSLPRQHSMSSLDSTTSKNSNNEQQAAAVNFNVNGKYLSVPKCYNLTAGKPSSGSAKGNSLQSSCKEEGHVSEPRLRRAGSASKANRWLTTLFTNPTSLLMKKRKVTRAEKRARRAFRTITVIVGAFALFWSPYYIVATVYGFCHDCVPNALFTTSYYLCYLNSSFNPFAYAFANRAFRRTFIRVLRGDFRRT
T2 sequence (E5SAZ1 entry or part of it): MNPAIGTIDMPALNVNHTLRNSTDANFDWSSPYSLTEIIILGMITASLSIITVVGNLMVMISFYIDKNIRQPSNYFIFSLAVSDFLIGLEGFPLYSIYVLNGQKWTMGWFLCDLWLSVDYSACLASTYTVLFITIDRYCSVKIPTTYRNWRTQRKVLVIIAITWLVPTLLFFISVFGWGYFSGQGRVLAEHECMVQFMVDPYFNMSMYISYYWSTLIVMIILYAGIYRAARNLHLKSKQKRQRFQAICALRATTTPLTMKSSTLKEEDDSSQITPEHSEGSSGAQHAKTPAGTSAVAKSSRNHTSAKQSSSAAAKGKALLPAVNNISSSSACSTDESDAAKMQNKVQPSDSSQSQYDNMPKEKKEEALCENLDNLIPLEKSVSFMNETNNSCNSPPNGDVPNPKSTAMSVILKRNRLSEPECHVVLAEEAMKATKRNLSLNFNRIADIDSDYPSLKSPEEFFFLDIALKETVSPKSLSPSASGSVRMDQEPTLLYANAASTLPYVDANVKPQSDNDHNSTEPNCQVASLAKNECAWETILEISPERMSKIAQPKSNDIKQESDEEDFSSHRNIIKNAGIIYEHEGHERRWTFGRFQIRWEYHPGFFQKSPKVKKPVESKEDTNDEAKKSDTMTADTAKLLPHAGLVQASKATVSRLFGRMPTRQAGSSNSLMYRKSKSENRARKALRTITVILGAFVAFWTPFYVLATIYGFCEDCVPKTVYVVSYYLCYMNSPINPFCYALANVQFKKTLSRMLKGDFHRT

| SMILES | EC50 (TsGAR-3 [1]) | nH (Hill coefficient), agonist, TsGAR-3 (TsGAR-3 [1]; without Gα15(16)) | agonist activity on TsGAR-3 (in words) (TsGAR-3 [1]; without Gα15(16)) | nH (Hill coefficient), agonist, TsGAR-2 (TsGAR-2 [2]; [8]) | agonist activity on TsGAR-2 (in words) (TsGAR-2 [2]; co-expressed with Gα15(16)) | nH (Hill coefficient), agonist, TsGAR-1 (TsGAR-1 [3]; [8]) | agonist activity on TsGAR-1 (in words) (TsGAR-1 [3]; co-expressed with Gα15(16)) | EC50 (TsGAR-1 [3]) | antagonist effect on TsGAR-1 (in words) (TsGAR-1 [4]) | antagonist effect on TsGAR-2 (in words) (TsGAR-2 [5]) | IC50 (TsGAR-3 [6]) | nH (Hill coefficient), antagonist, TsGAR-3 (TsGAR-3 [6]) | antagonist effect on TsGAR-3 (in words) (TsGAR-3 [6]) | EC50 (TsGAR-2 [2]) | other results |
| --- | --- | --- | --- | --- | --- | --- | --- | --- | --- | --- | --- | --- | --- | --- | --- |
| CC(=O)OCC[N+](C)(C)C [Acetylcholine, acetylcholine chloride] | 400 ± 73.1 nM | 0.7319 | potent activator | 0.5883 | potent activator | 0.8621 | potent activator |  |  |  |  |  |  |  | ACh-mediated calcium mobilization via TsGAR-3 (in words) (TsGAR-3 [1]; co-expressed with Gα15(16)): dose-dependent activity; ACh-mediated calcium mobilization via TsGAR-3 (in words) (TsGAR-3 [1]; [7]): effective responses; EC50 (TsGAR-2 [2]; agonist, CHO cells, co-expressed with Gα15(16), SE of three biological replications, read-out: EC50 ± SE (nM), TsGAR-2): 14.7 ± 10.8 nM; ACh-mediated calcium mobilization via TsGAR-2 (in words) (TsGAR-2 [2]; co-expressed with Gα15(16)): dose-dependent activity; ACh-mediated calcium mobilization via TsGAR-2 (in words) (TsGAR-2 [2]; [7]): effective responses; EC50 (TsGAR-1 [3]; agonist, CHO cells, co-expressed with Gα15(16), SE of three biological replications, read-out: EC50 ± SE (nM), TsGAR-1): 194 ± 18.1 nM; ACh-mediated calcium mobilization via TsGAR-1 (in words) (TsGAR-1 [3]; co-expressed with Gα15(16)): dose-dependent activity; ACh-mediated calcium mobilization via TsGAR-1 (in words) (TsGAR-1 [3]; [7]): effective responses |
| COC(=O)C1=CCCN(C)C1 [Arecoline, arecoline hydrobromide] | 457 ± 156 nM | 1.199 | partial agonist |  | did not detect any arecoline-triggered activation | 1.054 | partial agonist | 4630 ± 841 nM |  |  |  |  |  |  | agonist activity on A. suum GAR-1 (in words) (A. suum GAR-1): effectively activate |
| CN1[C@@H]2CC[C@H]1C[C@@H](OC(=O)C(CO)c1ccccc1)C2 (stereo partly drawn) [Atropine, atropine] |  |  |  |  |  |  |  |  | not effective in blocking; also recorded: totally ineffective | not effective in blocking | 222 ± 42.7 nM | −0.8748 | effectively inhibited |  | antagonist effect on A. suum GAR-1 (in words) (A. suum GAR-1): effective in inhibiting; also recorded: effectively blocked; antagonist effect on C. elegans GAR-1 (in words) (C. elegans GAR-1): effective in inhibiting; also recorded: effectively blocked; antagonist effect on T. castaneum mAChR-B (in words) (T. castaneum mAChR-B): remained unaffected; antagonist effect on D. melanogaster mAChR-B (in words) (D. melanogaster mAChR-B): remained unaffected |
| CC(C[N+](C)(C)C)OC(N)=O (stereo not drawn) [Bethanechol, bethanechol chloride] | > 10000 nM | 1.390 | low potency | 0.8738 | low potency | 0.9289 | low potency | > 10000 nM |  |  |  |  |  | > 10000 nM | agonist activity on A. suum GAR-1 (in words) (A. suum GAR-1): agonistic effect was shown |
| C[N+](C)(C)CCOC(N)=O [Carbachol, carbamoylcholine chloride] | 1930 ± 256 nM | 0.9117 |  | 0.9531 |  | 0.8693 |  | 2050 ± 235 nM |  |  |  |  |  | 2670 ± 508 nM |  |
| C[C@@H]1O[C@H](C[N+](C)(C)C)C[C@H]1O [Muscarine, (+)-muscarine chloride] | 2500 ± 960 nM | 0.7106 | potent agonist | 0.8666 | low affinity |  | no |  |  |  |  |  |  | > 10000 nM | sensitivity of T. castaneum mAChR-B relative to mAChR-A (T. castaneum mAChR-B; [9]): ~100 times; sensitivity of D. melanogaster mAChR-B relative to mAChR-A (D. melanogaster mAChR-B; [9]): about 1000 times |
| CCCOC(C(=O)OC1CCN(C)CC1)(c1ccccc1)c1ccccc1 [Propiverine, propiverine hydrochloride] |  |  |  |  |  |  |  |  | partially blocked | partially blocked | > 10000 nM | −0.6649 | partially blocked |  | antagonist effect on A. suum GAR-1 (in words) (A. suum GAR-1): largely no effect; antagonist effect on C. elegans GAR-1 (in words) (C. elegans GAR-1): largely no effect; IC50 (TsGAR-1 [4]; antagonist vs 10 μM ACh, read-out: IC50 ± SE (nM), TsGAR-1): > 10000 nM; IC50 (TsGAR-2 [5]; antagonist vs 10 μM ACh, read-out: IC50 ± SE (nM), TsGAR-2): > 10000 nM; nH (Hill coefficient), antagonist, TsGAR-2 (TsGAR-2 [5]; antagonist): −3.002; antagonist effect on C. elegans GAR-2 (in words) (C. elegans GAR-2): largely no effect |
| CN1[C@@H]2C[C@@H](OC(=O)[C@H](CO)c3ccccc3)C[C@H]1[C@@H]1O[C@@H]12 [Scopolamine, (−)-scopolamine hydrobromide trihydrate] |  |  |  |  |  |  |  |  | not effective in blocking | not effective in blocking | 27.3 ± 6.3 nM | −1.151 | effectively inhibited |  | antagonist effect on T. castaneum mAChR-B (in words) (T. castaneum mAChR-B): remained unaffected; antagonist effect on D. melanogaster mAChR-B (in words) (D. melanogaster mAChR-B): remained unaffected |
